Experiments:
Format in all cases: in vivo
Laodelphax striatella = test: Test of insecticidal effect on Laodelphax striatella (rice seedling dip); conditions: Laodelphax striatellus, 192 h, rice seedlings dipped for 30 seconds, 3rd-instar larvae, 8 days after the inoculation, read-out: insecticidal effect (corrected mortality rate), activity level
From the text: Test of Insecticidal Effect on Laodelphax striatella
The condensed heterocyclic compounds represented by the general formula (1) of the present invention or salts thereof were separately dispersed in water and diluted to 500 ppm, and rice plant seedlings (variety: Nihonbare) were dipped in the agrochemical dispersions for 30 seconds. After air-dried, each seedling was put into a separate glass test tube and inoculated with ten 3rd-instar larvae of Laodelphax striatella, and then the glass test tubes were capped with cotton plugs. At 8 days after the inoculation, the numbers of surviving larvae and dead larvae were counted, the corrected mortality rate was calculated according to the formula shown below, and the insecticidal effect was evaluated according to the criterion of Test Example 1. Corrected mortality rate (%)=100×(Survival rate in a non-treatment plot−Survival rate in a treatment plot)/Survival rate in a non-treatment plot

Myzus persicae = test: Test of control effect on Myzus persicae (foliar application, potted Chinese cabbage); conditions: 144 h, foliar application to potted Chinese cabbage plants, 6 days after the foliar application, read-out: control effect (control rate), activity level
From the text: Test of Control Effect on Myzus persicae Chinese cabbage plants were planted in plastic pots (diameter: 8 cm, height: 8 cm), green peach aphids (Myzus persicae) were propagated on the plants, and the number of surviving green peach aphids in each pot was counted. The condensed heterocyclic compounds represented by the general formula (1) of the present invention or salts thereof were separately dispersed in water and diluted to 500 ppm, and the agrochemical dispersions were applied to the foliage of the potted Chinese cabbage plants. After the plants were air-dried, the pots were kept in a greenhouse. At 6 days after the foliar application, the number of surviving green peach aphids on the Chinese cabbage plant in each pot was counted, the control rate was calculated according to the formula shown below, and the control effect was evaluated according to the criterion shown below. Control rate=100−{(T×Ca)/(Ta×C)}×100 Ta: the number of survivors before the foliar application in a treatment plot T: the number of survivors after the foliar application in a treatment plot Ca: the number of survivors before the foliar application in a non-treatment plot C: the number of survivors after the foliar application in a non-treatment plot Criterion A: the control rate is 100%. B: the control rate is 90 to 99%. C: the control rate is 80 to 89%. D: the control rate is 50 to 79%.

Plutella xylostella = test: Test of insecticidal effect on Plutella xylostella (dip of Chinese cabbage seedlings with laid eggs); conditions: 144 h, seedlings with laid eggs dipped for about 30 seconds, 25° C., 6 days after the dip treatment, read-out: insecticidal effect (corrected mortality rate), activity level
From the text: Test of Insecticidal Effect on Plutella xylostella
Adults of Plutella xylostella were released onto Chinese cabbage seedlings and allowed to lay eggs thereon. At 2 days after the release of the adults, the Chinese cabbage seedlings with laid eggs were dipped for about 30 seconds in agrochemical dispersions diluted to 500 ppm, each of which contained a different condensed heterocyclic compound represented by the general formula (1) of the present invention as an active ingredient. The seedlings were air-dried and then kept in a thermostatic chamber at 25° C. At 6 days after the dip treatment, the number of hatched larvae per plot was counted, the mortality rate was calculated according to the formula shown below, and the insecticidal effect was evaluated according to the criterion of Test Example 1. This test was conducted in triplicate using 10 adults of Plutella xylostella per plot. Corrected mortality rate (%)=100×(Number of hatched larvae in a non-treatment plot−Number of hatched larvae in a treatment plot)/Number of hatched larvae in a non-treatment plot

## CCS(=O)(=O)c1cc(C2CC2)cnc1-c1nc2cc(C(F)(F)F)cnc2n1C [Compound 1-15]
Laodelphax striatella
  mortality at 500 ppm: 100%
Myzus persicae
  pest or weed control at 500 ppm: 100%
Plutella xylostella
  mortality at 500 ppm: 100%

## CCSc1cc(C2CC2)cnc1-c1nc2cc(C(F)(F)F)cnc2o1 [Compound 3-13, 2-(3-ethylthio-5-cyclopropylpyridin-2-yl)-5-trifluoromethyl-oxazolo[5,4-b]pyridine]
Laodelphax striatella
  mortality at 500 ppm: 100%
Myzus persicae
  pest or weed control at 500 ppm: 100%
Plutella xylostella
  mortality at 500 ppm: 100%

## CCS(=O)(=O)c1cc(C2CC2)cnc1-c1nc2cc(C(F)(F)F)cnc2o1 [Compound 3-15, 2-(3-ethylsulfonyl-5-cyclopropylpyridin-2-yl)-5-trifluoromethyl-oxazolo[5,4-b]pyridine]
Laodelphax striatella
  mortality at 500 ppm: 100%
Myzus persicae
  pest or weed control at 500 ppm: 100%
Plutella xylostella
  mortality at 500 ppm: 100%

## CCSc1cc(C2CC2)cnc1-c1nc2cc(C(F)(F)F)cnc2s1 [Compound 5-13]
Laodelphax striatella
  mortality at 500 ppm: 100%
Myzus persicae
  pest or weed control at 500 ppm: 100%
Plutella xylostella
  mortality at 500 ppm: 100%

## CCS(=O)(=O)c1cc(C2CC2)cnc1-c1nc2cc(C(F)(F)F)cnc2s1 [Compound 5-15]
Laodelphax striatella
  mortality at 500 ppm: 100%
Myzus persicae
  pest or weed control at 500 ppm: 100%
Plutella xylostella
  mortality at 500 ppm: 100%

## CCSc1cc(C2CC2)cnc1-c1nc2cc(C(F)(F)F)ccc2n1C [Compound 7-13, 2-(3-ethylthio-5-cyclopropylpyridin-2-yl)-1-methyl-5-trifluoromethyl-1H-benzimidazole]
Laodelphax striatella
  mortality at 500 ppm: 100%
Myzus persicae
  pest or weed control at 500 ppm: 100%
Plutella xylostella
  mortality at 500 ppm: 100%

## CC[S+]([O-])c1cc(C2CC2)cnc1-c1nc2cc(C(F)(F)F)ccc2n1C (centres unmarked) [Compound 7-14, 2-(3-ethylsulfinyl-5-cyclopropylpyridin-2-yl)-1-methyl-5-trifluoromethyl-1H-benzimidazole]
Laodelphax striatella
  mortality at 500 ppm: 100%
Myzus persicae
  pest or weed control at 500 ppm: 100%
Plutella xylostella
  mortality at 500 ppm: 100%

## CCS(=O)(=O)c1cc(C2CC2)cnc1-c1nc2cc(C(F)(F)F)ccc2n1C [Compound 7-15, 2-(3-ethylsulfonyl-5-cyclopropylpyridin-2-yl)-1-methyl-5-trifluoromethyl-1H-benzimidazole]
Laodelphax striatella
  mortality at 500 ppm: 100%
Myzus persicae
  pest or weed control at 500 ppm: 100%
Plutella xylostella
  mortality at 500 ppm: 100%

## CCSc1cc(C2CC2)cnc1-c1nc2cc(C(F)(F)F)ccc2s1 [Compound 9-10, 2-(3-ethylthio-5-cyclopropylpyridin-2-yl)-5-trifluoromethyl-benzothiazole]
Laodelphax striatella
  mortality at 500 ppm: 100%
Myzus persicae
  pest or weed control at 500 ppm: 100%
Plutella xylostella
  mortality at 500 ppm: 100%

## CCS(=O)(=O)c1cc(C2CC2)cnc1-c1nc2cc(C(F)(F)F)ccc2s1 [Compound 9-12, 2-(3-ethylsulfonyl-5-cyclopropylpyridin-2-yl)-5-trifluoromethyl-benzothiazole]
Laodelphax striatella
  mortality at 500 ppm: 100%
Myzus persicae
  pest or weed control at 500 ppm: 100%
Plutella xylostella
  mortality at 500 ppm: 100%

## CCS(=O)(=O)c1cc(C2(C(=O)O)CC2)cnc1-c1nc2cc(C(F)(F)F)cnc2n1C [Compound 11-1]
Laodelphax striatella
  mortality at 500 ppm: 100%
Myzus persicae
  pest or weed control at 500 ppm: 100%
Plutella xylostella
  mortality at 500 ppm: 100%

## CCS(=O)(=O)c1cc(C2(C(=O)OC)CC2)cnc1-c1nc2cc(C(F)(F)F)cnc2n1C [Compound 11-2]
Laodelphax striatella
  mortality at 500 ppm: 100%
Myzus persicae
  pest or weed control at 500 ppm: 100%
Plutella xylostella
  mortality at 500 ppm: 100%

## CCS(=O)(=O)c1cc(C2(C(N)=O)CC2)cnc1-c1nc2cc(C(F)(F)F)cnc2n1C [Compound 11-6]
Laodelphax striatella
  mortality at 500 ppm: 100%
Myzus persicae
  pest or weed control at 500 ppm: 100%
Plutella xylostella
  mortality at 500 ppm: 100%

## CCS(=O)(=O)c1cc(C2(C#N)CC2)cnc1-c1nc2cc(C(F)(F)F)cnc2n1C [Compound 11-13]
Laodelphax striatella
  mortality at 500 ppm: 100%
Myzus persicae
  pest or weed control at 500 ppm: 100%
Plutella xylostella
  mortality at 500 ppm: 100%

## CCS(=O)(=O)c1cc(C2CC2C(=O)OC)cnc1-c1nc2cc(C(F)(F)F)cnc2n1C (centres unmarked) [Compound 11-82]
Laodelphax striatella
  mortality at 500 ppm: 100%
Myzus persicae
  pest or weed control at 500 ppm: 100%
